Reference: ChEMBL document CHEMBL1201862, “PubChem BioAssay data set” (2004)
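Each compound was tested at five concentrations against cells in 96-well plates for 48 hours. GI50 = concentration required for 50% inhibition of growth.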 Activity calls are given as the source filed them. No stated cut-off is given here; in the data, active = GI50 up to about 1.1 µM and inactive = higher.

Tests used:
Assay in all cases: DTP human tumour cell line panel, 48 h
HCT-116 = test system: HCT-116
SR = test system: SR
TK-10 = test system: TK-10
SNB-75 = test system: SNB-75
CAKI-1 = test system: CAKI-1
MDA-N = test system: MDA-N
SK-OV-3 = test system: SK-OV-3
EKVX = test system: EKVX
COLO 205 = test system: COLO 205
PC-3 = test system: PC-3
786-0 = test system: 786-0
SN12C = test system: SN12C
HT-29 = test system: HT-29
U-251 = test system: U-251
HOP-62 = test system: HOP-62
SF-268 = test system: SF-268
MDA-MB-231 = test system: MDA-MB-231
K562 = test system: K562
NCI-H522 = test system: NCI-H522

Measured: GI50

CC1(C)Oc2ccc(Cl)cc2C12CC2
inactive: HCT-116 14.7 µM | SR 18.1 µM | TK-10 18.4 µM | SNB-75 16.8 µM | CAKI-1 15.6 µM | MDA-N 17.8 µM | SK-OV-3 21.7 µM | EKVX 10.8 µM | COLO 205 14 µM | PC-3 13.9 µM | 786-0 16.7 µM | SN12C 18.8 µM | HT-29 17.6 µM | U-251 15.3 µM | HOP-62 18.2 µM | SF-268 16.6 µM | MDA-MB-231 16.6 µM | K562 15.5 µM

O=c1[nH]c2cccc([N+](=O)[O-])c2c(=O)n1-c1ccc(Cl)cc1
inactive: HCT-116 17.9 µM | SR 15 µM | TK-10 14.9 µM | CAKI-1 2.64 µM | MDA-N 11.3 µM | SK-OV-3 14.3 µM | EKVX 10.8 µM | COLO 205 4.24 µM | PC-3 16.6 µM | 786-0 19.8 µM | SN12C 14 µM | HT-29 7.03 µM | U-251 16.4 µM | HOP-62 18.6 µM | SF-268 12.2 µM | MDA-MB-231 15.8 µM | K562 1.48 µM

CCCCn1cc(C(=O)O)c(=O)c2c3sccc3ccc21
inactive: HCT-116 > 100 µM | TK-10 > 100 µM | SNB-75 25.8 µM | CAKI-1 > 100 µM | MDA-N > 100 µM | SK-OV-3 > 100 µM | EKVX > 100 µM | COLO 205 > 100 µM | PC-3 > 100 µM | 786-0 > 100 µM | SN12C > 100 µM | HT-29 > 100 µM | U-251 6.73 µM | HOP-62 > 100 µM | SF-268 > 100 µM | MDA-MB-231 > 100 µM | NCI-H522 > 100 µM | K562 > 100 µM

COC(=O)C1=C(OC(=O)/C(=C/c2ccccc2)c2ccc([N+](=O)[O-])cc2)C(C(=O)OC)[C@@]2(O)[C@@H](C(=O)OC)[C@H](C)C[C@@H]1[C@@H]2C(=O)OC (some centres not stated)
inactive: HCT-116 > 100 µM | TK-10 > 100 µM | SNB-75 72.9 µM | CAKI-1 > 100 µM | MDA-N > 100 µM | SK-OV-3 > 100 µM | EKVX > 100 µM | COLO 205 > 100 µM | PC-3 > 100 µM | 786-0 > 100 µM | SN12C > 100 µM | HT-29 > 100 µM | U-251 > 100 µM | HOP-62 > 100 µM | SF-268 > 100 µM | MDA-MB-231 > 100 µM | NCI-H522 77.3 µM | K562 > 100 µM

O=C1Nc2ccccc2NC1C1OC(c2ccccc2)=CC1=O (configuration not stated)
inactive: HCT-116 > 100 µM | SR > 100 µM | TK-10 > 100 µM | SNB-75 > 100 µM | CAKI-1 > 100 µM | MDA-N > 100 µM | SK-OV-3 > 100 µM | EKVX > 100 µM | COLO 205 > 100 µM | PC-3 > 100 µM | 786-0 > 100 µM | HT-29 > 100 µM | U-251 > 100 µM | SF-268 > 100 µM | MDA-MB-231 > 100 µM | K562 > 100 µM

COC(=O)[C@]12CSC[C@H]1C[C@H](c1ccc(N(C)C)cc1)N2
inactive: HCT-116 > 100 µM | SR > 100 µM | TK-10 > 100 µM | SNB-75 > 100 µM | CAKI-1 > 100 µM | MDA-N > 62.2 µM | SK-OV-3 > 100 µM | EKVX > 73.3 µM | COLO 205 > 100 µM | PC-3 > 100 µM | 786-0 > 100 µM | SN12C > 100 µM | U-251 > 100 µM | HOP-62 > 100 µM | SF-268 > 100 µM | MDA-MB-231 > 100 µM | K562 > 100 µM

Cc1coc2c1[C@@H](O)[C@@]1(C)[C@H](CCC[C@@H]1C)C2
inactive: HCT-116 33.5 µM | SR 21.6 µM | TK-10 > 100 µM | CAKI-1 72.6 µM | MDA-N 20.7 µM | SK-OV-3 48.4 µM | EKVX 69 µM | COLO 205 22.6 µM | PC-3 36.5 µM | 786-0 34.8 µM | SN12C 24.7 µM | HT-29 42.8 µM | HOP-62 40.5 µM | SF-268 34.6 µM | MDA-MB-231 27.2 µM | NCI-H522 25.3 µM | K562 26.9 µM

CC1(c2cccs2)CC(c2cccs2)=C(C#N)C(=C(C#N)C#N)N1 (configuration not stated)
inactive: HCT-116 17.3 µM | SR 18 µM | TK-10 21 µM | SNB-75 18.8 µM | CAKI-1 19.7 µM | MDA-N 16.7 µM | SK-OV-3 21.6 µM | EKVX 18.1 µM | COLO 205 16.9 µM | PC-3 15.4 µM | 786-0 17.3 µM | SN12C 18.7 µM | HT-29 17.9 µM | U-251 15.8 µM | HOP-62 19.9 µM | SF-268 18.2 µM | MDA-MB-231 23.5 µM | K562 23 µM

Fc1cccc(C2SCc3nc4cc5ccccc5cc4n32)c1 (configuration not stated)
inactive: HCT-116 > 100 µM | SR > 100 µM | TK-10 > 100 µM | SNB-75 93.1 µM | CAKI-1 68.9 µM | MDA-N > 100 µM | SK-OV-3 > 100 µM | EKVX > 100 µM | COLO 205 > 100 µM | PC-3 > 100 µM | 786-0 69.3 µM | SN12C 53.3 µM | HT-29 > 100 µM | U-251 > 100 µM | HOP-62 41.5 µM | SF-268 > 100 µM | MDA-MB-231 > 100 µM | K562 > 100 µM

Cc1c(C)c2ccc(O)cc2[nH]c1=O
inactive: HCT-116 > 100 µM | SR > 100 µM | SNB-75 98.9 µM | CAKI-1 > 100 µM | MDA-N > 100 µM | EKVX > 100 µM | COLO 205 > 100 µM | PC-3 > 100 µM | 786-0 > 100 µM | SN12C > 100 µM | HT-29 > 100 µM | U-251 > 100 µM | HOP-62 > 100 µM | MDA-MB-231 > 100 µM | K562 > 100 µM

C1=CC(=[N+]2N=C(c3ccccc3)CC2c2ccccc2)C=CC1=C1SC(c2ccccc2)(c2ccccc2)c2ccccc21.[O-][Cl+3]([O-])([O-])[O-] (configuration not stated)
inactive: HCT-116 93.5 µM | SR > 100 µM | TK-10 > 100 µM | MDA-N > 100 µM | SK-OV-3 > 100 µM | EKVX > 100 µM | PC-3 > 100 µM | 786-0 > 100 µM | SN12C > 100 µM | HT-29 > 100 µM | U-251 > 100 µM | HOP-62 > 100 µM | SF-268 > 100 µM | MDA-MB-231 > 100 µM | K562 > 100 µM
